One assay deals with T1, E. coli AcrB (Escherichia coli, UniProt P31224).
T1 construct: 4xHis (C); made in house; host or cells: E. coli BL21-Gold (DE3), plasmid derived from pSPORT1
The assay is described as follows: Isothermal titration calorimetry (ITC) binding to purified AcrB. The text has this:
We selected three compounds for further study, CU032, CU232, and CU244, because they incorporated different aspects of the parent structure, specifically the negative atoms on the benzene ring and the amine on opposite side of the molecule. To determine whether the EPMs could bind AcrB, we used purified E. coli AcrB, which is 95% identical to S. enterica Typhimurium AcrB. […] Here, we show with ITC that, like EPM35, the three analogs are capable of specifically interacting with AcrB to form complexes (Fig. S1; Table 1). Curiously, the analogs have KDs that are 25- to 50-fold larger than that of EPM35. […] Thus, the EPM analogs interact specifically with AcrB in a manner consistent with established EPM substrates.
AcrB protein was purified as described ([25]). Briefly, the AcrB protein contains a 4×His tag at the C-terminus and was overproduced in E. coli BL21-Gold (DE3) cells (Stratagene) using the plasmid derived from pSPORT1 (Invitrogen) ([79]). Cells were grown in 6 L of LB medium with 100 µg/mL ampicillin and disrupted with a French pressure cell. The membrane fraction was collected and washed twice with buffer containing 20 mM sodium phosphate (pH 7.2), 2 M KCl, 10% glycerol, 1 mM EDTA, and 1 mM phenylmethanesulfonyl fluoride (PMSF), and once with 20 mM HEPES–NaOH buffer (pH 7.5) containing 1 mM PMSF. The membrane proteins were then solubilized in 1% (wt/vol) n-dodecyl β-D-maltoside (DDM). Insoluble material was removed by ultracentrifugation at 370,000 × g. The extracted protein was purified with Cu^2+-affinity and G-200 sizing columns ([13], [80]). The purified AcrB protein was then concentrated to a final monomeric concentration of 10 µM in buffer containing 20 mM Na-HEPES (pH 7.5) and 0.05% DDM. Similar protein purification procedures were extensively used to elucidate structure-function of RND transporters, including AcrB ([13], [16], [25]), CusA ([81], [82]), MtrD ([83], [84]), CmeB ([85]), AdeB ([86]), HpnN ([87]), and MmpL3 ([88]).
Briefly, measurements were performed on a Microcal iTC200 (Malvern Panalytical) at 25°C. Before titration, the protein was dialyzed against buffer containing 20 mM Na-HEPES (pH 7.5), 0.05% […] (DDM), and 5% DMSO ([18]). The Bradford assay was used to quantify protein concentration, which was adjusted to a final monomeric concentration of 10 µM. Ligand solution consisting of 100 µM EPM in the aforementioned buffer was prepared as the titrant. Both the protein and ligand samples were degassed before loading the samples. Two-microliter injections of the ligand were used for data collection. Injections occurred at intervals of 60 s and lasted for 4 s. Heat transfer (µcal/s) was measured as a function of elapsed time (s). The mean enthalpies measured from injection of the ligand in the buffer were subtracted from raw titration data before data analysis with ORIGIN software (MicroCal). Titration curves fitted with a non-linear regression fitting to the binding isotherm provided the equilibrium binding constant (KA = 1/KD) and enthalpy of binding (ΔH). Based on the values of KA, the change in free energy (ΔG) and entropy (ΔS) were calculated with the equation ΔG = −RT lnKA = ΔH − TΔS, where T is […] and R is 1.9872 cal/K per mol. Calorimetry trials were also carried out in the absence of AcrB using the same experimental conditions.

Assay [1] has as its system Bacillus subtilis expressing mNeongreen-FtsZ. The assay can be described thus: Membrane voltage disruption assay (mNeongreen-FtsZ delocalization). The assay is classed as cell-based. As to conditions: 150 µM, 15 min, LPM 5.5. The text has this:
We therefore monitored membrane integrity in the presence of EPM analogs by evaluating membrane voltage with mNeongreen-FtsZ ([28][–][30]). The FtsZ protein localizes to the bacterial septum based on membrane potential, and rapid delocalization of fluorescent FtsZ reporters occurs when voltage across the membrane is disrupted ([31], [32]). We monitored mNeongreen-FtsZ localization in a Gram-positive bacterium, Bacillus subtilis, to eliminate the potentially confounding issue of the passage of EPM analogs through the outer membrane at different rates ([24], [33][–][36]).
To determine whether exposure to compound dislodges FtsZ from the cell septum, an overnight culture of Bacillus subtilis grown in LPM at pH 5.5 (LPM 5.5) expressing mNeonGreen-FtsZ (strain DK5092) was exposed to DMSO, CCCP (100 µM) or an EPM analog (150 µM) for 15 or 30 min, as indicated. Bacteria were immobilized on 1% agarose pads made with LPM under a coverslip. To set the threshold value for the FtsZ septal ring, mNeonGreen signal (excitation 488 nm, emission 525 nm) from at least 20 DMSO-treated cells was quantified using a CV1000 confocal microscope with a 100× oil, NA = 1.4 objective. A background-subtracted image was made by subtracting the median intensity from full original images. A signal threshold of ≥400 arbitrary units per pixel was set (Fig. 4B). Then, we manually confirmed that mNeonGreen signal above threshold was at the center of the bacterial rod. We examined 50 cells per sample from at least three biological replicates (≥150 cells per condition). A MATLAB program (https://github.com/Betterton-Lab/FtsZ-Quantification) counted the number of pixels above threshold per cell and averaged this value across all cells for each condition and this value is reported in the graph (Fig. 4C).

Assay [2] concerns S. Typhimurium ΔacrAB mutant. The assay can be described thus: Growth (OD600) of ΔacrAB mutant in LPM 5.5. The assay is classed as cell-based. The text has this:
(§1) LPM 5.5 is chemically defined, contains low phosphate and low magnesium, and is buffered to pH 5.5 ([34], [39][–][41]). […] It was further noted that mutant strains lacking acrAB or tolC grow poorly in LPM 5.5 compared to the corresponding wild type (Fig. 5C through F).
(§2) Fig 5 In LPM pH 5.5, acrAB and tolC are required for growth, and EPM analogs inhibit growth. (A and B) Optical density at 600 nm (OD600) and CFU per milliliter of S. Typhimurium in LPM 5.5 (at pH 5.5) or LPM 7 (at pH 7.0) in the presence of CU032. (C through F) OD600 in LPM 5.5 of (C and E) S. Typhimurium ΔacrAB mutant and wild-type strains, and (D and F) E. coli ΔtolC mutant and wild-type strains with (C, D) CU032 or (E and F) EPM35. Mean and SEM of three biological replicates are shown for A–F. The wild-type and mutant strain controls are the same for C and E and for D and F.

The subject of the next assay is E. coli ΔtolC mutant. The assay is described as follows: Growth (OD600) of ΔtolC mutant in LPM 5.5. The assay is classed as cell-based.
From the text: as §1, §2

Here are results for four compounds from PMC10746280, “Bacterial efflux pump modulators prevent bacterial growth in macrophages and under broth conditions that mimic the host environment” (mBio, 2023).

T1 sequence (P31224 whole entry): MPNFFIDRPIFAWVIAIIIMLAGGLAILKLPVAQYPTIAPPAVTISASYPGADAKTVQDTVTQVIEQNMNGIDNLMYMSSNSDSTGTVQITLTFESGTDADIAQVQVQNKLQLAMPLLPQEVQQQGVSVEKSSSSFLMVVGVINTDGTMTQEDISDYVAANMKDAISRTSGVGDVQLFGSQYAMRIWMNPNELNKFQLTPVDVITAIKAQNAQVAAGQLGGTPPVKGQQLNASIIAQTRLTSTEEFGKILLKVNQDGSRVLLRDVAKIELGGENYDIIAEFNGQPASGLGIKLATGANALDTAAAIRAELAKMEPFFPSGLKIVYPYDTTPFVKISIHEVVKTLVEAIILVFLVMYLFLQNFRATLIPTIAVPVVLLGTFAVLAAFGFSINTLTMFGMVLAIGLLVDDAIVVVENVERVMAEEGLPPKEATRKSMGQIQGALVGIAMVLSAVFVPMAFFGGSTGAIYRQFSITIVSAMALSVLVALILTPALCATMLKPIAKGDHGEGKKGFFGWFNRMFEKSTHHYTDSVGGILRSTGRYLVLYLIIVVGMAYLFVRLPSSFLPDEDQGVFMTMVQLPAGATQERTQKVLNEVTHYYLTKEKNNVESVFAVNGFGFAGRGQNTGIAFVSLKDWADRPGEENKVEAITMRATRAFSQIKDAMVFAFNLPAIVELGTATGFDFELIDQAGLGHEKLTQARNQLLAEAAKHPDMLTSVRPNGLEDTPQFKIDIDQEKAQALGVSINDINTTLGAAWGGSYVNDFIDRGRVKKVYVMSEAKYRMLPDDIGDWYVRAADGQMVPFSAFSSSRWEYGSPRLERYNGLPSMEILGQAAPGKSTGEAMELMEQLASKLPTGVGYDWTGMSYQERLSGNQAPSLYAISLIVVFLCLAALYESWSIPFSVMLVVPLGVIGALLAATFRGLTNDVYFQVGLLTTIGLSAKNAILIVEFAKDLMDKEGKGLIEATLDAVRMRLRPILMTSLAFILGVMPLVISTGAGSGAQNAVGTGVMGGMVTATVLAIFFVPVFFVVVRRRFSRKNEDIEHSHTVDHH

`NC1CCN(CC(O)COc2cccc(C(F)(F)F)c2)CC1` (stereo not shown) [CU232]: at E. coli AcrB, the “∆H” value is reported as −2,124 ± 93 cal/mol and the “∆S” value is given as 16.30 cal/(mol deg). In assay [1], the “effect on mNeongreen-FtsZ ring size / localization” value is on record as “no significant effect”.

Turning to `OC(COc1ccc(Cl)c(Cl)c1)CN1CCC(Nc2nccc(C(F)(F)F)n2)CC1` (stereo not shown) [EPM35], the “effect on mNeongreen-FtsZ ring size / localization” value in assay [1] is “did not alter FtsZ localization”. Besides, in assay [2], the “growth inhibition of ΔacrAB mutant compared to DMSO” value is “does not strongly inhibit growth”. In addition, the “growth inhibition of ΔtolC mutant compared to DMSO” value in the assay on E. coli ΔtolC mutant was “does not strongly inhibit growth”.

For the compound `NC1CCN(CC(O)COc2ccc(Cl)c(Cl)c2)C1` (stereo not shown) [CU032], at E. coli AcrB, the “∆H” value is listed as −1,947 ± 490 cal/mol and the “∆S” value is 15.60 cal/(mol deg). For the same compound, the “effect on mNeongreen-FtsZ ring size / localization” value in assay [1] is reported as “no significant effect”. The “growth inhibition of ΔacrAB mutant compared to DMSO” value in assay [2] is on record as “does not strongly inhibit growth”. Besides, the “growth inhibition of ΔtolC mutant compared to DMSO” value with E. coli ΔtolC mutant was “does not strongly inhibit growth”.

For the compound `OC(CN[C@H]1[C@@H]2CNC[C@@H]21)COc1cc(Cl)cc(Cl)c1` (stereo partly shown) [CU244], at E. coli AcrB, the “∆H” value is reported as −8,654 ± 1,384 cal/mol and the “∆S” value is listed as −6.91 cal/(mol deg).
